From patent publication US11180462B2, “Microbiocidal oxadiazole derivatives” (SYNGENTA PARTICIPATIONS AG, priority 2015, dated 2021)

Key:
[1] = test system: Puccinia recondita f. Sp. Tritici; assay: Fungicidal activity against Puccinia recondita f. sp. tritici / wheat / leaf disc preventative (brown rust); format: in vivo; conditions: foliar, 200 ppm in the applied formulation, wheat leaf segments, preventative, compared to untreated control leaf disks, read-out: disease control
Method in brief: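 Compound application precedes infection: segments of wheat cv. Kanzler, sprayed at 200 ppm, are inoculated with a spore suspension after 1 day. Incubation is at 19° C. with 75% relative humidity and 12 h light/12 h darkness, and control versus untreated leaves is rated 7 to 9 days post-application.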

[2] = test system: Puccinia recondita f. Sp. Tritici; assay: Fungicidal activity against Puccinia recondita f. sp. tritici / wheat / leaf disc curative (brown rust); format: in vivo; conditions: foliar, 24 h, 200 ppm in the applied formulation, wheat leaf segments, curative (applied 1 day after inoculation), compared to untreated control leaf disks, read-out: disease control
Method in brief: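 Segments of wheat cv. Kanzler were laid on agar and inoculated with a spore suspension of the rust, then held in darkness at 19° C and 75% relative humidity. One day later the water-diluted formulated compound was applied, with incubation continued under a 12 h light/dark cycle.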

Phakopsora Pachyrhizi = assay: Fungicidal activity against Phakopsora pachyrhizi / soybean / leaf disc preventative (Asian soybean rust); format: in vivo; conditions: foliar, 200 ppm in the applied formulation, soybean leaf disks, compared to untreated control leaf disks, read-out: disease control
Method in brief: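 Preventative soybean leaf-disc test: discs on water agar sprayed with diluted formulated compound, inoculated one day later with spores on the lower surface. Held 24–36 h dark at 20°C, 75% rh, then 12 h light/day; percent disease control versus untreated discs scored 12–14 days after application.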

[3] = test system: Glomerella lagenarium (Colletotrichum lagenarium); assay: Fungicidal activity against Glomerella lagenarium (Colletotrichum lagenarium) liquid culture / cucumber / preventative (anthracnose); format: cell-based; conditions: Colletotrichum orbiculare; 20 ppm in the applied formulation; liquid culture (PDB), growth inhibition measured photometrically after 3 to 4 days; compared to untreated control; read-out: disease control
Method in brief: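 Photometric read-out of fungal growth after 2–7 days, expressed as percent antifungal activity versus untreated check. Cryo-stored conidia in PDB; compound at 20 ppm; dark, 24 °C, 96% RH.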

CON(Cc1ccc(-c2noc(C(F)(F)F)n2)cc1)C(=O)Cc1ccccc1 [Compound 1.4, N-methoxy-2-phenyl-N-[[4-[5-(trifluoromethyl)-1,2,4-oxadiazol-3-yl]phenyl]methyl]-acetamide]
≥ 80%: pest or weed control at 200 ppm [1] | pest or weed control at 200 ppm [2] | pest or weed control at 200 ppm (Phakopsora Pachyrhizi) | inhibition of growth at 20 ppm [3]

CCN(Cc1ccc(-c2noc(C(F)(F)F)n2)cc1)C(=O)C(C)C [Compound 1.503]
≥ 80%: pest or weed control at 200 ppm [1] | pest or weed control at 200 ppm [2] | pest or weed control at 200 ppm (Phakopsora Pachyrhizi) | inhibition of growth at 20 ppm [3]

CC1(C(=O)N(O)Cc2ccc(-c3noc(C(F)(F)F)n3)cc2)COC1 [Compound 1.766, N-hyd roxy-3-methyl-N-[[4-[5-(trifluoromethyl)-1,2,4-oxadiazol-3-yl]phenyl]methyl]-oxetane-3-c arboxamide]
≥ 80%: pest or weed control at 200 ppm [1] | pest or weed control at 200 ppm [2] | pest or weed control at 200 ppm (Phakopsora Pachyrhizi) | inhibition of growth at 20 ppm [3]

COCCC(=O)N(CCOC)Cc1ccc(-c2noc(C(F)(F)F)n2)cc1 [Compound 1.335, 3-methoxy-N-(2-methoxyethyl)-N-[[4-[5-(trifluoromethyl)-1,2,4-oxadiazol-3-yl]phenyl]methyl]-propanamide]
≥ 80%: pest or weed control at 200 ppm [1] | pest or weed control at 200 ppm [2] | pest or weed control at 200 ppm (Phakopsora Pachyrhizi) | inhibition of growth at 20 ppm [3]

CON(Cc1ccc(-c2noc(C(F)(F)F)n2)cc1)C(=O)CC(F)(F)F [Compound 1.36, 3,3,3-trifluoro-N-methoxy-N-[[4-[5-(trifluoromethyl)-1,2,4-oxadiazol-3-yl]phenyl]methyl]-propanamide]
≥ 80%: pest or weed control at 200 ppm [1] | pest or weed control at 200 ppm [2] | pest or weed control at 200 ppm (Phakopsora Pachyrhizi) | inhibition of growth at 20 ppm [3]

O=C(C1CC1)N(Cc1ccc(-c2noc(C(F)(F)F)n2)cc1)C1CC1 [Compound 1.149, N-cyclopropyl-N-[[4-[5-(trifluoromethyl)-1,2,4-oxadiazol-3-yl]phenyl]methyl]-cyclopropane-carboxamide]
≥ 80%: pest or weed control at 200 ppm [1] | pest or weed control at 200 ppm [2] | pest or weed control at 200 ppm (Phakopsora Pachyrhizi) | inhibition of growth at 20 ppm [3]

N#CCC(=O)N(O)Cc1ccc(-c2noc(C(F)(F)F)n2)cc1 [Compound 1.771, 2-cyano-N-hydroxy-N-[[4-[5-(trifluoromethyl)-1,2,4-oxadiazol-3-yl]phenyl]methyl]-acetamide]
≥ 80%: pest or weed control at 200 ppm [1] | pest or weed control at 200 ppm [2] | pest or weed control at 200 ppm (Phakopsora Pachyrhizi) | inhibition of growth at 20 ppm [3]

CCN(C)C(=O)N(Cc1ccc(-c2noc(C(F)(F)F)n2)cc1)OC [Compound 3.17, 1-ethyl-3-methoxy-1-methyl-3-[[4-[5-(trifluoromethyl)-1,2,4-oxadiazol-3-yl]phenyl]methyl]urea]
≥ 80%: pest or weed control at 200 ppm [1] | pest or weed control at 200 ppm [2] | pest or weed control at 200 ppm (Phakopsora Pachyrhizi) | inhibition of growth at 20 ppm [3]

O=C(C1CC1(F)F)N(Cc1ccc(-c2noc(C(F)(F)F)n2)cc1)C1COC1 (centres unmarked) [Compound 1.739, 2,2-difluoro-N-(oxetan-3-yl)-N-[[4-[5-(trifluoromethyl)-1,2,4-oxadiazol-3-yl]phenyl]methyl]-cyclopropane-carboxamide]
≥ 80%: pest or weed control at 200 ppm [1] | pest or weed control at 200 ppm [2] | pest or weed control at 200 ppm (Phakopsora Pachyrhizi) | inhibition of growth at 20 ppm [3]

C=CCN(Cc1ccc(-c2noc(C(F)(F)F)n2)cc1)C(=O)C1CC1C (centres unmarked) [Compound 1.480, N-allyl-2-methyl-N-[[4-[5-(trifluoromethyl)-1,2,4-oxadiazol-3-yl]phenyl]methyl]-cyclopropane-carboxamide]
≥ 80%: pest or weed control at 200 ppm [1] | pest or weed control at 200 ppm [2] | pest or weed control at 200 ppm (Phakopsora Pachyrhizi) | inhibition of growth at 20 ppm [3]

COCCN(Cc1ccc(-c2noc(C(F)(F)F)n2)cc1)C(=O)CC(F)(F)F [Compound 1.361, 3,3,3-trifluoro-N-(2-methoxyethyl)-N-[[4-[5-(trifluoromethyl)-1,2,4-oxadiazol-3-yl]phenyl]methyl]-propanamide]
≥ 80%: pest or weed control at 200 ppm [1] | pest or weed control at 200 ppm [2] | pest or weed control at 200 ppm (Phakopsora Pachyrhizi) | inhibition of growth at 20 ppm [3]

COCCC(=O)N(Cc1ccc(-c2noc(C(F)(F)F)n2)cc1)C(C)C [Compound 1.674, N-isopropyl-3-methoxy-N-[[4-[5-(trifluoromethyl)-1,2,4-oxadiazol-3-yl]phenyl]methyl]-propanamide]
≥ 80%: pest or weed control at 200 ppm [1] | pest or weed control at 200 ppm [2] | pest or weed control at 200 ppm (Phakopsora Pachyrhizi) | inhibition of growth at 20 ppm [3]

CON(Cc1ccc(-c2noc(C(F)(F)F)n2)cc1)C(=O)C1(C(F)(F)F)CCC1 [Compound 1.19, N-methoxy-1-(trifluoromethyl)-N-[[4-[5-(trifluoromethyl)-1,2,4-oxadiazol-3-yl]phenyl]methyl]-cyclobutane-carboxamide]
≥ 80%: pest or weed control at 200 ppm [1] | pest or weed control at 200 ppm [2] | pest or weed control at 200 ppm (Phakopsora Pachyrhizi) | inhibition of growth at 20 ppm [3]

COCCN(Cc1ccc(-c2noc(C(F)(F)F)n2)cc1)C(=O)C1CC1 [Compound 1.363, N-(2-methoxyethyl)-N-[[4-[5-(trifluoromethyl)-1,2,4-oxadiazol-3-yl]phenyl]methyl]-cyclopropane-carboxamide]
≥ 80%: pest or weed control at 200 ppm [1] | pest or weed control at 200 ppm [2] | pest or weed control at 200 ppm (Phakopsora Pachyrhizi) | inhibition of growth at 20 ppm [3]

C=CCN(Cc1ccc(-c2noc(C(F)(F)F)n2)cc1)C(=O)C1OCCO1 [Compound 1.493, N-allyl-N-[[4-[5-(trifluoromethyl)-1,2,4-oxadiazol-3-yl]phenyl]methyl]-1,3-dioxolane-2-carboxamide]
≥ 80%: pest or weed control at 200 ppm [1] | pest or weed control at 200 ppm [2] | pest or weed control at 200 ppm (Phakopsora Pachyrhizi) | inhibition of growth at 20 ppm [3]

CON(Cc1ccc(-c2noc(C(F)(F)F)n2)cc1)C(=O)C1CCSCC1 [Compound 1.46, N-methoxy-N-[[4-[5-(trifluoromethyl)-1,2,4-oxadiazol-3-yl]phenyl]methyl] tetrahydrothiopyran-4-carboxamide]
≥ 80%: pest or weed control at 200 ppm [1] | pest or weed control at 200 ppm [2] | pest or weed control at 200 ppm (Phakopsora Pachyrhizi) | inhibition of growth at 20 ppm [3]

N#CC1(C(=O)N(Cc2ccc(-c3noc(C(F)(F)F)n3)cc2)C2COC2)CC1 [Compound 1.749, 1-cyano-N-(oxetan-3-yl)-N-[[4-[5-(trifluoromethyl)-1,2,4-oxadiazol-3-yl]phenyl]methyl]-cyclopropane-carboxamide]
≥ 80%: pest or weed control at 200 ppm [1] | pest or weed control at 200 ppm [2] | pest or weed control at 200 ppm (Phakopsora Pachyrhizi) | inhibition of growth at 20 ppm [3]

C#CCN(C)C(=O)N(Cc1ccc(-c2noc(C(F)(F)F)n2)cc1)OC [Compound 3.61, 1-methoxy-3-methyl-3-prop-2-ynyl-1-[[4-[5-(trifluoromethyl)-1,2,4-oxadiazol-3-yl]phenyl]methyl]urea]
≥ 80%: pest or weed control at 200 ppm [1] | pest or weed control at 200 ppm [2] | pest or weed control at 200 ppm (Phakopsora Pachyrhizi) | inhibition of growth at 20 ppm [3]

CON(C)C(=O)N(Cc1ccc(-c2noc(C(F)(F)F)n2)cc1)CC(F)(F)F [Compound 3.25, 1-methoxy-1-methyl-3-(2,2,2-trifluoroethyl)-3-[[4-[5-(trifluoromethyl)-1,2,4-oxadiazol-3-yl]phenyl]methyl]urea]
≥ 80%: pest or weed control at 200 ppm [1] | pest or weed control at 200 ppm [2] | pest or weed control at 200 ppm (Phakopsora Pachyrhizi) | inhibition of growth at 20 ppm [3]

C=C(C)C(=O)N(Cc1ccc(-c2noc(C(F)(F)F)n2)cc1)C(C)CC (centres unmarked) [Compound 1.390, 2-methyl-N-sec-butyl-N-[[4-[5-(trifluoromethyl)-1,2,4-oxadiazol-3-yl]phenyl]methyl]-prop-2-enamide]
≥ 80%: pest or weed control at 200 ppm [1] | pest or weed control at 200 ppm [2] | pest or weed control at 200 ppm (Phakopsora Pachyrhizi) | inhibition of growth at 20 ppm [3]
